From US5482941A, “Quinazolinone antianginal agents” (Pfizer Inc., priority 1991, dated 1996)
pIC50: −log10 of the molar value.

What was measured:
rabbit = experiment: Safety profile, acute toxicity in rabbit; format: in vivo
[1] = target: T1, calcium/calmodulin (Ca/CAM)-independent cGMP PDE (Oryctolagus cuniculus, UniProt G1SX67); experiment: In vitro inhibition of Ca/CAM-independent cGMP PDE; format: biochemical, rabbit; details: Ca/CAM-independent cGMP PDE from rabbit platelets, in vitro
T1 construct: The PDE enzymes are isolated from rabbit platelets and rat kidney; from tissue; host or cells: rabbit platelets
Procedure: (§1) Phosphodiesterase activity
(§2) Compound affinities for cGMP and cAMP PDEs are assessed by determination of their IC50 values (the concentration of inhibitor required for 50% inhibition of enzyme activity). The PDE enzymes are isolated from rabbit platelets and rat kidney, essentially by the method of W. J. Thompson et al. (Biochem., 1971, 10, 311). The calcium/calmodulin (Ca/CAM)-independentcGMP PDE and the cGMP-inhibited cAMP PDE enzymes are obtained from rabbit platelets whilst, of the four major PDE enzymes of the rat kidney, the Ca/CAM-dependent cGMP PDE (fraction I) is isolated. Assays are performed using a modification of the "batch" method of W. J. Thompson and M. M. Appleman (Biochem., 1979, 18, 5228).

[2] = test system: calcium/calmodulin (Ca/CAM)-independent cGMP PDE; experiment: In vitro inhibition of Ca/CAM-independent cGMP PDE; format: biochemical, rabbit; details: between Ca/CAM-independent cGMP PDE and cGMP-inhibited cAMP PDE (IC50 cAMP / IC50 cGMP)
Procedure: as §1, §2

cGMP-inhibited cAMP PDE = target: T2, cGMP-inhibited cAMP PDE (Oryctolagus cuniculus, UniProt G1ST54); experiment: In vitro inhibition of cGMP-inhibited cAMP PDE; format: biochemical; details: cGMP-inhibited cAMP PDE from rabbit platelets
T2 construct: The PDE enzymes are isolated from rabbit platelets and rat kidney; from tissue; host or cells: rabbit platelets
T2 sequence (G1ST54 1-1128): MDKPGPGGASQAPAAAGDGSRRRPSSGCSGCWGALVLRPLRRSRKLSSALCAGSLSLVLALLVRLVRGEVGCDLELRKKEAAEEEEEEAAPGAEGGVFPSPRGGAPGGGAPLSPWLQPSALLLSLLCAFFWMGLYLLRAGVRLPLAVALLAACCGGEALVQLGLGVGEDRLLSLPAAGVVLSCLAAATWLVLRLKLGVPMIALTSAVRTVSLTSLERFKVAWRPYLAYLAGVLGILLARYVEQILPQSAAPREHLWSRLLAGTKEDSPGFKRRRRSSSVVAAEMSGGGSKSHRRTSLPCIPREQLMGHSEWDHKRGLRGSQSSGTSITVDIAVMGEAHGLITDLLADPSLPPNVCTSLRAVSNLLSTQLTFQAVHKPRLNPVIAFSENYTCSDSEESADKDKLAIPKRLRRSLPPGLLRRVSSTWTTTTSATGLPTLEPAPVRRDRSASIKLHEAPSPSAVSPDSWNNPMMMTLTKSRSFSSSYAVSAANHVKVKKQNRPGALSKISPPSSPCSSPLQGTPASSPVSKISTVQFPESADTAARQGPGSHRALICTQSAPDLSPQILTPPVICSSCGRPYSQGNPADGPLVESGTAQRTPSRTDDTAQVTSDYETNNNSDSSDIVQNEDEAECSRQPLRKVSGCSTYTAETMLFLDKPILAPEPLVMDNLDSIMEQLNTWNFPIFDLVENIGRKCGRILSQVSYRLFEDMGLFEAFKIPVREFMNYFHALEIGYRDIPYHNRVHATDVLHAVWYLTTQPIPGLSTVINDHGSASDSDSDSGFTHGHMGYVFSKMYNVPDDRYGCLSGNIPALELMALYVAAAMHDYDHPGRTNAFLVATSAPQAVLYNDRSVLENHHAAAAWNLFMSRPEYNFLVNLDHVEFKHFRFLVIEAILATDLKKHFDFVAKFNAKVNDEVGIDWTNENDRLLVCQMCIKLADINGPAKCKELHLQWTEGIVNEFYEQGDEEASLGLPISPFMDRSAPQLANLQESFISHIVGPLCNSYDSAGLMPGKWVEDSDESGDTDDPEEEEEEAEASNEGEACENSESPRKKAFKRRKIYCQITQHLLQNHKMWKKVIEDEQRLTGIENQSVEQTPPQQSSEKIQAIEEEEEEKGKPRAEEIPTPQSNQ
Procedure: as §1, §2

pIC50 [1]	pIC50 (cGMP-inhibited cAMP PDE)	SMILES	signs of adverse acute toxicity (rabbit; doses of up to 10 mg/kg i.d.)	SELECTIVITY RATIO [2]	signs of adverse acute toxicity (rabbit; doses of up to 1 mg/kg i.d.)
–	–	CCOc1ccc(S(=O)(=O)N2CCN(CCO)CC2)cc1-c1nc2cccc(C)c2c(=O)[nH]1 [Example 4, 2-{2-Ethoxy-5-[4-(2-hydroxyethyl)-1-piperazinylsulphonyl]phenyl}-5-methylquinazolin-4(3H)-one]	no signs of adverse acute toxicity being observed	–	–
8.19	< 4.00	CCCOc1ccc(S(=O)(=O)N2CCN(CCO)CC2)cc1-c1nc2c(C)cccc2c(=O)[nH]1 [Example 6]	–	> 15,384	–
7.27	< 4.00	CCCOc1ccc(C=CC(=O)OC(C)(C)C)cc1-c1nc2c(C)cccc2c(=O)[nH]1 [Example 10, t-Butyl 3-(8-methylquinazolin-4(3H)-on-2-yl)-4-n-propoxycinnamate]	–	> 1,851	–
7.28	< 4.00	CCOc1ccc(C(O)CN2CCOCC2)cc1-c1nc2c(C)cccc2c(=O)[nH]1 (centres unmarked) [Example 17, 2-[2-Ethoxy-5-(1-hydroxy-2-morpholinoethyl)phenyl]-8-methylquinazolin-4(3H)-one]	–	> 1,886	–
7.47	4.17	CCOc1ccc(S(=O)(=O)N2CCN(CCO)CC2)cc1-c1nc2c(C(N)=O)cccc2c(=O)[nH]1 [Example 19, 8-Carbamoy-2-{2-ethoxy-5-[4-(2-hydroxyethyl)-1-piperazinylsulphonyl]phenyl}quinazolin-4(3H)-one]	–	1,970	–
7.85	< 4.00	CCCOc1ccccc1-c1nc2c(C(=O)NCC)cccc2c(=O)[nH]1 [Example 21, 8-Ethylcarbamoyl-2-(2-n-propoxyphenyl)quinazolin-4(3H)-one]	–	> 7,142	–
7.31	< 4.00	CCCOc1ccc(C(C)=O)cc1-c1nc2c(C)cccc2c(=O)[nH]1 [Example 22, 2-(5-Acetyl-2-n-propoxyphenyl)-8-methylquinazolin-4(3H)-one]	–	–	–

SMILES	pIC50 [1]	pIC50 (cGMP-inhibited cAMP PDE)	signs of adverse acute toxicity (rabbit; doses of up to 10 mg/kg i.d.)	SELECTIVITY RATIO [2]	signs of adverse acute toxicity (rabbit; doses of up to 1 mg/kg i.d.)
CCOc1ccc(S(=O)(=O)N2CCN(CCO)CC2)cc1-c1nc2c(C)cccc2c(=O)[nH]1 [Example 5, 2-{2-Ethoxy-5-[4-(2-hydroxyethyl)-1-piperazinylsulphonyl]phenyl}-8-methylquinazolin-4(3H)-one]	7.43	< 4.00	no signs of adverse acute toxicity being observed	> 2,702	–
CCCOc1ccc(C=CC(=O)N2CCN(C)CC2)cc1-c1nc2c(C)cccc2c(=O)[nH]1 [Example 9]	7.43	< 4.00	–	> 2,702	no signs of adverse acute toxicity being observed
